# Target: T1, CRTH2 receptor (Homo sapiens, UniProt Q9Y5Y4)
# T1 construct: expressed in transfected cells; host or cells: Human embryonic kidney (HEK) cells, membranes
# T1 sequence (Q9Y5Y4 1-395): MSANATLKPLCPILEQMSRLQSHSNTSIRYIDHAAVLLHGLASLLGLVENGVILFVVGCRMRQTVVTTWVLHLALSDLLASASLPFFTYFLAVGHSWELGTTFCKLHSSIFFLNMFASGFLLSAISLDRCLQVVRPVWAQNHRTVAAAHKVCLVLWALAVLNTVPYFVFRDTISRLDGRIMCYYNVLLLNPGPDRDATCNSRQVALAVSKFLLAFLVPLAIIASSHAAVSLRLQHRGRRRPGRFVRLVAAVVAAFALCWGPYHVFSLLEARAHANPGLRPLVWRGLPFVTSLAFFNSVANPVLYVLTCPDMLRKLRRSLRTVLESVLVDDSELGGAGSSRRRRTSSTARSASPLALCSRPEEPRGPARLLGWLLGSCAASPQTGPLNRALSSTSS
# Test: CRTH2 radioligand binding assay ([3H]-PGD2 displacement, SPA)
# Conditions: HEK cell membranes expressing the CRTH2 receptor, 1 nM [3H]-PGD2
# Procedure: Compounds of the invention were tested using the following biological test methods to determine their ability to displace PGD2 from the CRTH2 receptor and for their ability to antagonise the functional effects of PGD2 at the CRTH2 receptor.
# The receptor binding assay is performed in a final volume of 200 μl binding buffer [10 mM BES (pH 7.4), 1 mM EDTA, 10 mM manganese chloride, 0.01% BSA] and 1 nM [^3H]-PGD2 (Amersham Biosciences UK Ltd). Ligands are added in assay buffer containing a constant amount of DMSO (1% by volume). Total binding is determined using 1% by volume of DMSO in assay buffer and non-specific binding is determined using 10 μM of unlabeled PGD2 (Sigma). Human embryonic kidney (HEK) cell membranes (3.5 μg) expressing the CRTH2 receptor are incubated with 1.5 mg wheatgerm agglutinin SPA beads and 1 nM [^3H]-PGD2 (Amersham Biosciences UK Ltd) and the mixture incubated for 3 hours at room temperature. Bound [^3H]-PGD2 is detected using a Microbeta TRILUX liquid scintillation counter (Perkin Elmer). Compound IC50 value is determined using a 6-point dose response curve in duplicate with a semi-log compound dilution series. IC50 calculations are performed using Excel and XLfit (Microsoft), and this value is used to determine a Ki value for the test compound using the Cheng-Prusoff equation.
row,IC50 [nM],SMILES
1,6.1,"CCc1nc2c(F)ccc(OCC(=O)O)c2c(OC(F)F)c1Cc1ccc(C#N)cc1 [Example 1, [3-(4-cyanobenzyl)-4-difluoromethoxy-2-ethyl-8-fluoroquinolin-5-yloxy]acetic acid]"
2,7.5,"CCc1nc2c(F)ccc(OCC(=O)O)c2c(OC(F)F)c1Cc1ccc(Br)cc1 [Example 2, [3-(4-bromobenzyl)-4-difluoromethoxy-2-ethyl-8-fluoroquinolin-5-yloxy]acetic acid]"

# Reference: patent US20100144786A1, “QUINOLINE DERIVATIVES AS CRTH2 RECEPTOR LIGANDS” (priority 2007, published 2010)
